Data taken from patent US20250230193A1, “CYCLIC COMPOUND HAVING SELECTIVE KRAS INHIBITORY EFFECT ON HRAS AND NRAS” (CHUGAI SEIYAKU KABUSHIKI KAISHA, priority 2022, published 2025).

Experiments:
[1] = test system: human lung cancer strain NCI-H441; experiment: cells; details: NCI-H441, 96 h, read-out: NCI-H441 IC50 (nM)
[2] = molecular target: GDP-bound HRAS wild-type protein (Homo sapiens, UniProt P01112); experiment: Binding to HRAS by surface plasmon resonance (SPR), Single Cycle Kinetics; details: SPR; KD ratio class
[3] = molecular target: GDP-bound NRAS wild-type protein (Homo sapiens, UniProt P01111); experiment: Binding to NRAS by surface plasmon resonance (SPR), Single Cycle Kinetics; details: SPR; KD ratio class
Chain of GDP-bound NRAS wild-type protein (P01111 whole entry): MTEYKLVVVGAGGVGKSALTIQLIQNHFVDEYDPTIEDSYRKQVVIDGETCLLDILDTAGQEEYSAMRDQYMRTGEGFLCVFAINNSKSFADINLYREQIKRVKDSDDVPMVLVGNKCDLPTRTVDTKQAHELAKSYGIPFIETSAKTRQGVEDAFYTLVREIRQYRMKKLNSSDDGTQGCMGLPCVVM

Chain of GDP-bound HRAS wild-type protein (P01112 whole entry): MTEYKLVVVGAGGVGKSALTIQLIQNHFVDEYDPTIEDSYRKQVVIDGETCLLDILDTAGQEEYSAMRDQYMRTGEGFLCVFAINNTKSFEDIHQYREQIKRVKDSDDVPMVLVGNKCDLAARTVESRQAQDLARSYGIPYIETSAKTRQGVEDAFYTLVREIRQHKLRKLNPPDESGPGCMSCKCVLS

SMILES	IC50 [1]	HRAS/KRAS (ratio of KD value for GDP-bound HRAS wild-type protein to KD value for KRAS) [2]	NRAS/KRAS (ratio of KD value for GDP-bound NRAS wild-type protein to KD value for KRAS) [3]
CCO[C@@H]1C[C@H]2C(=O)NC3(CCC3)C(=O)N(C)[C@@H](C3CCCC3)C(=O)N(C)[C@H](C(=O)N3CCCC3)CC(=O)N(C)[C@@H](CC3CCC3)C(=O)N[C@@H]([C@@H](C)CC)C(=O)N(C)CC(=O)N(C)[C@H]3C/C=C\CCN(C3=O)[C@@H](Cc3ccc(C)cc3)C(=O)N(C)CC(=O)N[C@@H](CCc3cc(F)c(C(F)(F)F)c(F)c3)C(=O)N2C1 [PP1425]	20.2 nM	B (a compound having 3 or more and less than 10 is denoted as B)	A (a compound having 10 or more and less than 20 is denoted as A)
CC[C@H](C)[C@@H]1NC(=O)[C@H](CC2CCC2)N(C)C(=O)C[C@@H](C(=O)N(C)C)N(C)C(=O)[C@H](C2CCCC2)N(C)C(=O)C2(CCCC2)NC(=O)[C@@H]2CCCN2C(=O)[C@H](CCc2ccc(C(F)(F)F)c(Cl)c2)NC(=O)CN(C)C(=O)[C@H](Cc2ccc(C(F)(F)F)cc2)N2C[C@H](C)CC[C@@H](C2=O)N(C)C(=O)CN(C)C1=O [PP1342]	5 nM	B (a compound having 3 or more and less than 10 is denoted as B)	B (a compound having 3 or more and less than 10 is denoted as B)
CCO[C@@H]1C[C@H]2C(=O)NC3(CCCC3)C(=O)N(C)[C@@H](C(CC)CC)C(=O)N(C)[C@H](C(=O)N3CCCC3)CC(=O)N(C)[C@@H](COC)C(=O)N[C@@H]([C@@H](C)CC)C(=O)N(C)CC(=O)N(C)[C@H]3C/C=C\CCN(C3=O)[C@@H](CC3CCCCC3)C(=O)N(C)CC(=O)N[C@@H](CCc3cc(F)c(C(F)(F)F)c(F)c3)C(=O)N2C1 [PP1439]	87.3 nM	A (a compound having 10 or more and less than 20 is denoted as A)	AA (a compound having 20 or more is denoted as AA)
CCO[C@@H]1C[C@H]2C(=O)NC3(CCC3)C(=O)N(C)[C@@H](C3CCCC3)C(=O)N(C)[C@H](C(=O)N(C)C)CC(=O)N(C)[C@@H](CC3CC3)C(=O)N[C@@H]([C@@H](C)CC)C(=O)N(C)CC(=O)N(C)[C@H]3C/C=C\CCN(C3=O)[C@@H](Cc3ccc(C)cc3)C(=O)N(C)CC(=O)N[C@@H](CCc3cc(F)c(Cl)c(F)c3)C(=O)N2C1 [PP1484]	59.3 nM	A (a compound having 10 or more and less than 20 is denoted as A)	A (a compound having 10 or more and less than 20 is denoted as A)
CCO[C@@H]1C[C@H]2C(=O)NC3(CCC3)C(=O)N(C)[C@@H](C(CC)CC)C(=O)N(C)[C@H](C(=O)N(C)C)CC(=O)N(C)[C@@H](CC)C(=O)N[C@@H]([C@@H](C)CC)C(=O)N(C)CC(=O)N(C)[C@H]3C/C=C\CCN(C3=O)[C@@H](Cc3ccc(C(F)(F)F)cc3)C(=O)N(C)CC(=O)N[C@@H](CCc3ccc(C(F)(F)F)c(OC)c3)C(=O)N2C1 [PP1207]	29.9 nM	A (a compound having 10 or more and less than 20 is denoted as A)	AA (a compound having 20 or more is denoted as AA)
CCO[C@@H]1C[C@H]2C(=O)NC3(CCC3)C(=O)N(C)[C@@H](C3CCCC3)C(=O)N(C)[C@H](C(=O)N3CCOCC3)CC(=O)N(C)[C@@H](CC)C(=O)N[C@@H]([C@@H](C)CC)C(=O)N3CC[C@H]3C(=O)N(C)[C@H]3CC[C@@H](C)CN(C3=O)[C@@H](Cc3ccc(C(F)(F)F)cc3)C(=O)N(C)CC(=O)N[C@@H](CCc3ccc(C(F)(F)F)c(Cl)c3)C(=O)N2C1 [PP1375]	11.5 nM	B (a compound having 3 or more and less than 10 is denoted as B)	B (a compound having 3 or more and less than 10 is denoted as B)
CCO[C@@H]1C[C@H]2C(=O)NC3(CCC3)C(=O)N(C)[C@@H](C3CCCC3)C(=O)N(C)[C@H](C(=O)N(C)C)CC(=O)N(C)[C@@H](CC(C)(C)C)C(=O)N[C@@H]([C@@H](C)CC)C(=O)N(C)CC(=O)N(C)[C@H]3C/C=C\CCN(C3=O)[C@@H](CC3CCCCC3)C(=O)N(C)CC(=O)N[C@@H](CCc3cc(F)c(C(F)(F)F)c(F)c3)C(=O)N2C1 [PP1474]	48.2 nM	A (a compound having 10 or more and less than 20 is denoted as A)	A (a compound having 10 or more and less than 20 is denoted as A)
CC[C@H](C)[C@@H]1NC(=O)[C@H](CC)N(C)C(=O)C[C@@H](C(=O)N(C)C)N(C)C(=O)[C@H](C2CCCC2)N(C)C(=O)C2(CCC2)NC(=O)[C@@H]2CCCN2C(=O)[C@H](CCc2cc(F)c(C(F)(F)F)c(F)c2)NC(=O)CN(C)C(=O)[C@H](CC2CCCCC2)N2CC/C=C\C[C@@H](C2=O)N(C)C(=O)CN(C)C1=O [PP1475]	48.9 nM	A (a compound having 10 or more and less than 20 is denoted as A)	A (a compound having 10 or more and less than 20 is denoted as A)
CCO[C@@H]1C[C@H]2C(=O)NC3(CCOCC3)C(=O)N(C)[C@@H](C3CCCC3)C(=O)N(C)[C@H](C(=O)N(C)C)CC(=O)N(C)[C@@H](CC)C(=O)N[C@@H]([C@@H](C)CC)C(=O)N(C)CC(=O)N(C)[C@H]3C/C=C\CCN(C3=O)[C@@H](Cc3ccc(C(F)(F)F)cc3)C(=O)N(C)CC(=O)N[C@@H](CCc3cc(F)c(C(F)(F)F)c(F)c3)C(=O)N2C1 [PP1279]	72.6 nM	A (a compound having 10 or more and less than 20 is denoted as A)	A (a compound having 10 or more and less than 20 is denoted as A)
CCO[C@@H]1C[C@H]2C(=O)NC3(CCC3)C(=O)N(C)[C@@H](C(CC)CC)C(=O)N(C)[C@H](C)CC(=O)N(C)[C@@H](CC(C)C)C(=O)N[C@@H]([C@@H](C)CC)C(=O)N(C)CC(=O)N(C)[C@H]3C/C=C\CCN(C3=O)[C@@H](Cc3ccc(F)cc3C)C(=O)N(C)CC(=O)N[C@@H](CCc3cc(F)c(C(F)(F)F)c(F)c3)C(=O)N2C1 [PP1524]	439 nM	B (a compound having 3 or more and less than 10 is denoted as B)	B (a compound having 3 or more and less than 10 is denoted as B)
CCO[C@@H]1C[C@H]2C(=O)NC3(CCC3)C(=O)N(C)[C@@H](C3CCCC3)C(=O)N(C)[C@H](C(=O)N3CCOCC3)CC(=O)N(C)[C@@H](CC(C)C)C(=O)N[C@@H]([C@@H](C)CC)C(=O)N(C)CC(=O)N(C)[C@H]3C/C=C\CCN(C3=O)[C@@H](Cc3ccc(C)cc3)C(=O)N(C)CC(=O)N[C@@H](CCc3cc(F)c(C(F)(F)F)c(F)c3)C(=O)N2C1 [PP1415]	9.5 nM	A (a compound having 10 or more and less than 20 is denoted as A)	A (a compound having 10 or more and less than 20 is denoted as A)
